Results reported in ChEMBL document CHEMBL5705893, “Targeting the mitotic checkpoint for cancer therapy with NMS-P715, an inhibitor of MPS1 kinase” (Cancer Res, 2010).
Values belong to the molecule of their own block, whether it stands above or below them.

Assays:
[1] = molecular target: T1, Dual specificity protein kinase TTK (Homo sapiens, UniProt P33981); experiment: Inhibition of MPS1 in human taxol-arrested U2OS cells assessed as effect on histone H3 phosphorylation at ser10 residue incubated for 2 hrs by arrayscan analysis; assay type: cell-based
T1 sequence (P33981 whole entry): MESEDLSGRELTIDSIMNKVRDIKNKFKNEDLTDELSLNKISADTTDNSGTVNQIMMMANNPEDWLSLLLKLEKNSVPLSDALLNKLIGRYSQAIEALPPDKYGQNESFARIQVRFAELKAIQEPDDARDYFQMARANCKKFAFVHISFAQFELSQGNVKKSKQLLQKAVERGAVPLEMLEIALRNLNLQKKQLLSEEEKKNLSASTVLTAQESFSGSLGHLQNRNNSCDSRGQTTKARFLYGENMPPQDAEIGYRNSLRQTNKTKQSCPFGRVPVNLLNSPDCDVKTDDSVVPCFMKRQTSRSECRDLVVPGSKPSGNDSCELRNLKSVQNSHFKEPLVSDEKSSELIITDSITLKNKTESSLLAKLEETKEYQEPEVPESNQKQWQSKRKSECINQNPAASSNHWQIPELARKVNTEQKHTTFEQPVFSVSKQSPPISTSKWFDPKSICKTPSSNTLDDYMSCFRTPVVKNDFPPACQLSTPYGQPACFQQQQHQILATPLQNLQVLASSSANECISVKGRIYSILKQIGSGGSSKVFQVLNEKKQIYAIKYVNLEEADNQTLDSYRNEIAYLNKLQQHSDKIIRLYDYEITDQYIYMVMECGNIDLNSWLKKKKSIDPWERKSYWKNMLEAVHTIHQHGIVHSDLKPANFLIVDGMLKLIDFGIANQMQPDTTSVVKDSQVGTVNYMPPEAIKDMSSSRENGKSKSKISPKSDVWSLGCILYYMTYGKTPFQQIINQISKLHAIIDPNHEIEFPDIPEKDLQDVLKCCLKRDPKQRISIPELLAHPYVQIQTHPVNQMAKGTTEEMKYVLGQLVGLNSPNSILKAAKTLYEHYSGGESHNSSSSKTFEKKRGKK

[2] = molecular target: Proto-oncogene tyrosine-protein kinase receptor Ret (Homo sapiens, UniProt P07949); experiment: Inhibition of recombinant RET (unknown origin)
[3] = molecular target: Serine/threonine-protein kinase PLK1 (Homo sapiens, UniProt P53350); experiment: Inhibition of recombinant PLK1 (unknown origin)
[4] = molecular target: Non-receptor tyrosine-protein kinase TYK2 (Homo sapiens, UniProt P29597); experiment: Inhibition of recombinant TYK 2 (unknown origin)
[5] = molecular target: RAC-alpha serine/threonine-protein kinase (Homo sapiens, UniProt P31749); experiment: Inhibition of recombinant AKT1 (unknown origin)
[6] = molecular target: Mitogen-activated protein kinase 1 (Homo sapiens, UniProt P28482); experiment: Inhibition of recombinant ERK2 (unknown origin)
[7] = molecular target: Serine/threonine-protein kinase 26 (Homo sapiens, UniProt Q9P289); experiment: Inhibition of recombinant MST4 (unknown origin)
[8] = molecular target: Serine/threonine-protein kinase Chk1 (Homo sapiens, UniProt O14757); experiment: Inhibition of recombinant CHK1 (unknown origin)
[9] = molecular target: Eukaryotic elongation factor 2 kinase (Homo sapiens, UniProt O00418); experiment: Inhibition of recombinant EEF2K (unknown origin)
Focal adhesion kinase 1 = Focal adhesion kinase 1 (Homo sapiens, UniProt Q05397); experiment: Inhibition of recombinant FAK (unknown origin)
[10] = Inhibition of recombinant SULU1 (unknown origin); set-up: species or system Homo sapiens
[11] = molecular target: Tyrosine-protein kinase ZAP-70 (Homo sapiens, UniProt P43403); experiment: Inhibition of recombinant ZAP70 (unknown origin)
[12] = molecular target: Serine/threonine-protein kinase Nek6 (Homo sapiens, UniProt Q9HC98); experiment: Inhibition of recombinant NEK6 (unknown origin)
[13] = molecular target: Serine/threonine-protein kinase haspin (Homo sapiens, UniProt Q8TF76); experiment: Inhibition of recombinant Haspin (unknown origin)
[14] = molecular target: Protein kinase C beta type (Homo sapiens, UniProt P05771); experiment: Inhibition of recombinant PKCbeta (unknown origin)
Casein kinase 2 = Casein kinase 2 (Homo sapiens, UniProt P67870+P68400+P19784+Q8NEV1); experiment: Inhibition of recombinant CK2 (unknown origin); assay type: protein assay
Insulin receptor = Insulin receptor (Homo sapiens, UniProt P06213); experiment: Inhibition of recombinant IR (unknown origin)
[15] = molecular target: Vascular endothelial growth factor receptor 3 (Homo sapiens, UniProt P35916); experiment: Inhibition of recombinant VEGFR3 (unknown origin)
[16] = molecular target: MAP kinase-activated protein kinase 2 (Homo sapiens, UniProt P49137); experiment: Inhibition of recombinant MAPKAPK2 (unknown origin)
[17] = molecular target: Serine/threonine-protein kinase pim-2 (Homo sapiens, UniProt Q9P1W9); experiment: Inhibition of recombinant PIM2 (unknown origin)
[18] = Inhibition of recombinant PDGFR (unknown origin); set-up: species or system Homo sapiens
[19] = molecular target: Maternal embryonic leucine zipper kinase (Homo sapiens, UniProt Q14680); experiment: Inhibition of recombinant MELK (unknown origin)
Activated CDC42 kinase 1 = Activated CDC42 kinase 1 (Homo sapiens, UniProt Q07912); experiment: Inhibition of recombinant ACK1 (unknown origin)
[20] = molecular target: Mitotic checkpoint serine/threonine-protein kinase BUB1 (Homo sapiens, UniProt O43683); experiment: Inhibition of recombinant BUB1 (unknown origin)
[21] = Inhibition of recombinant ABL (unknown origin); set-up: species or system Homo sapiens
[22] = molecular target: T1, Dual specificity protein kinase TTK; experiment: Inhibition of recombinant MPS1 (unknown origin)
[23] = molecular target: Receptor-type tyrosine-protein kinase FLT3 (Homo sapiens, UniProt P36888); experiment: Inhibition of recombinant FLT3 (unknown origin)
[24] = molecular target: Vascular endothelial growth factor receptor 2 (Homo sapiens, UniProt P35968); experiment: Inhibition of recombinant VEGFR2 (unknown origin)
[25] = molecular target: Tyrosine-protein kinase JAK3 (Homo sapiens, UniProt P52333); experiment: Inhibition of recombinant JAK3 (unknown origin)
[26] = molecular target: Glycogen synthase kinase-3 beta (Homo sapiens, UniProt P49841); experiment: Inhibition of recombinant GSK3beta (unknown origin)
[27] = molecular target: Fibroblast growth factor receptor 1 (Homo sapiens, UniProt P11362); experiment: Inhibition of recombinant FGFR1 (unknown origin)
[28] = molecular target: Serine/threonine-protein kinase NIM1 (Homo sapiens, UniProt Q8IY84); experiment: Inhibition of recombinant NIM1 (unknown origin)
[29] = molecular target: Serine/threonine-protein kinase PAK 4 (Homo sapiens, UniProt O96013); experiment: Inhibition of recombinant PAK4 (unknown origin)
[30] = molecular target: Protein-tyrosine kinase 6 (Homo sapiens, UniProt Q13882); experiment: Inhibition of recombinant BRK (unknown origin)
[31] = molecular target: Mast/stem cell growth factor receptor Kit (Homo sapiens, UniProt P10721); experiment: Inhibition of recombinant KIT (unknown origin)
[32] = molecular target: Serine/threonine-protein kinase pim-1 (Homo sapiens, UniProt P11309); experiment: Inhibition of recombinant PIM1 (unknown origin)
[33] = molecular target: Tyrosine-protein kinase JAK1 (Homo sapiens, UniProt P23458); experiment: Inhibition of recombinant JAK1 (unknown origin)
[34] = molecular target: Tyrosine-protein kinase Lck (Homo sapiens, UniProt P06239); experiment: Inhibition of recombinant LCK (unknown origin)
[35] = molecular target: CDC7/DBF4 (Cell division cycle 7-related protein kinase/Activator of S phase kinase) (Homo sapiens, UniProt O00311); experiment: Inhibition of recombinant CDC7/DBF4 (unknown origin); assay type: protein-complex assay
[36] = molecular target: High affinity nerve growth factor receptor (Homo sapiens, UniProt P04629); experiment: Inhibition of recombinant TRKA (unknown origin)
[37] = molecular target: Inhibitor of nuclear factor kappa-B kinase subunit beta (Homo sapiens, UniProt O14920); experiment: Inhibition of recombinant IKK2 (unknown origin)
[38] = Inhibition of recombinant AUR1 (unknown origin); set-up: species or system Homo sapiens
[39] = molecular target: ALK tyrosine kinase receptor (Homo sapiens, UniProt Q9UM73); experiment: Inhibition of recombinant ALK (unknown origin)
[40] = molecular target: Eukaryotic translation initiation factor 2-alpha kinase 3 (Homo sapiens, UniProt Q9NZJ5); experiment: Inhibition of recombinant PERK (unknown origin)
[41] = molecular target: Tyrosine-protein kinase Lyn (Homo sapiens, UniProt P07948); experiment: Inhibition of recombinant LYN (unknown origin)
[42] = Inhibition of recombinant AUR2 (unknown origin); set-up: species or system Homo sapiens

Chain of RAC-alpha serine/threonine-protein kinase (P31749 whole entry): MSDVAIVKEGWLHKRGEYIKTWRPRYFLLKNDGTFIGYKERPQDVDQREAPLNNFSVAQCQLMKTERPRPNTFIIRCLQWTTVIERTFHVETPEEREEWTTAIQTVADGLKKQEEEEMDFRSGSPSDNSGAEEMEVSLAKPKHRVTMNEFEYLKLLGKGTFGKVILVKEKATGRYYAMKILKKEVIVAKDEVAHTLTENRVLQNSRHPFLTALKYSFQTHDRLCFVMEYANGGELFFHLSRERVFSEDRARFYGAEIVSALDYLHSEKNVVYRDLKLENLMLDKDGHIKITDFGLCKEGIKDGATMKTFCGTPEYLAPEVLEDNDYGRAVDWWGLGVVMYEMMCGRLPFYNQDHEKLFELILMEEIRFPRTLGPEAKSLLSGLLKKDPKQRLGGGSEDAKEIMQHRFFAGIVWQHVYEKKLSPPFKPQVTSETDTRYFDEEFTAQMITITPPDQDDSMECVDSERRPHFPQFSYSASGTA
Chain of Activated CDC42 kinase 1 (Q07912 whole entry): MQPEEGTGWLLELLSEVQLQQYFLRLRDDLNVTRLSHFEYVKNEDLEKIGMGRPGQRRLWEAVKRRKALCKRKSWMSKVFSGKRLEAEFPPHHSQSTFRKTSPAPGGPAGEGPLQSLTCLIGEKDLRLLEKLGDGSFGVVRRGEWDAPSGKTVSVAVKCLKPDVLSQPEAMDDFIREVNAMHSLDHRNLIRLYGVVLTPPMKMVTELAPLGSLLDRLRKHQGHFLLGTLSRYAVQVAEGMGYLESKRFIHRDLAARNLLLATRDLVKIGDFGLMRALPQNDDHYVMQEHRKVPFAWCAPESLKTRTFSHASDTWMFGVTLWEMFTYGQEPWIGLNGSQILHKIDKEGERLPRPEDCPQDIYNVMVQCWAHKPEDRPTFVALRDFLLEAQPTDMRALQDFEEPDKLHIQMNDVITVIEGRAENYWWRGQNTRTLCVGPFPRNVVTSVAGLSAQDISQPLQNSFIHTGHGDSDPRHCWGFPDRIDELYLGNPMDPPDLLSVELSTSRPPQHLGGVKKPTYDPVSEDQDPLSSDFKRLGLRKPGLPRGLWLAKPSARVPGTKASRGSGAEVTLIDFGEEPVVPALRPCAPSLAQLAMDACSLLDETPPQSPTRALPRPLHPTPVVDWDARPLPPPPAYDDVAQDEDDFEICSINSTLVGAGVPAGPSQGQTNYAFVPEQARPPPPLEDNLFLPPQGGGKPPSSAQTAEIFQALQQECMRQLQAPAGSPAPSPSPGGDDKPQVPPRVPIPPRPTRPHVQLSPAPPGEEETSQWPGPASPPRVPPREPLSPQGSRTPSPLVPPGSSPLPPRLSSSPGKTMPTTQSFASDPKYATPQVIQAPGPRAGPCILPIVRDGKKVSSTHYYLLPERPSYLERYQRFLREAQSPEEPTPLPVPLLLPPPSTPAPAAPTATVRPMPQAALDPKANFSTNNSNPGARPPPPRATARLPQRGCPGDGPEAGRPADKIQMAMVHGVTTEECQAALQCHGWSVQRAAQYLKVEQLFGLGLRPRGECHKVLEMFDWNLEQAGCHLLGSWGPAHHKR
Chain of Serine/threonine-protein kinase pim-1 (P11309 whole entry): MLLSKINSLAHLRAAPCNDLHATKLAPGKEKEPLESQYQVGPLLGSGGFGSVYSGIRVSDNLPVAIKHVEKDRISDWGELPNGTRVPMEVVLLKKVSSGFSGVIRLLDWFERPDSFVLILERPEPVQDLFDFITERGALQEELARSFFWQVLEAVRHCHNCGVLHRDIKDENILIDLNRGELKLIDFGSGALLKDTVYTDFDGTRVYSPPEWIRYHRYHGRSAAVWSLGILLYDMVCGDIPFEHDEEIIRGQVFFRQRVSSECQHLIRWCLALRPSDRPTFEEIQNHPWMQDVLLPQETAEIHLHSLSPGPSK
Chain of Receptor-type tyrosine-protein kinase FLT3 (P36888 whole entry): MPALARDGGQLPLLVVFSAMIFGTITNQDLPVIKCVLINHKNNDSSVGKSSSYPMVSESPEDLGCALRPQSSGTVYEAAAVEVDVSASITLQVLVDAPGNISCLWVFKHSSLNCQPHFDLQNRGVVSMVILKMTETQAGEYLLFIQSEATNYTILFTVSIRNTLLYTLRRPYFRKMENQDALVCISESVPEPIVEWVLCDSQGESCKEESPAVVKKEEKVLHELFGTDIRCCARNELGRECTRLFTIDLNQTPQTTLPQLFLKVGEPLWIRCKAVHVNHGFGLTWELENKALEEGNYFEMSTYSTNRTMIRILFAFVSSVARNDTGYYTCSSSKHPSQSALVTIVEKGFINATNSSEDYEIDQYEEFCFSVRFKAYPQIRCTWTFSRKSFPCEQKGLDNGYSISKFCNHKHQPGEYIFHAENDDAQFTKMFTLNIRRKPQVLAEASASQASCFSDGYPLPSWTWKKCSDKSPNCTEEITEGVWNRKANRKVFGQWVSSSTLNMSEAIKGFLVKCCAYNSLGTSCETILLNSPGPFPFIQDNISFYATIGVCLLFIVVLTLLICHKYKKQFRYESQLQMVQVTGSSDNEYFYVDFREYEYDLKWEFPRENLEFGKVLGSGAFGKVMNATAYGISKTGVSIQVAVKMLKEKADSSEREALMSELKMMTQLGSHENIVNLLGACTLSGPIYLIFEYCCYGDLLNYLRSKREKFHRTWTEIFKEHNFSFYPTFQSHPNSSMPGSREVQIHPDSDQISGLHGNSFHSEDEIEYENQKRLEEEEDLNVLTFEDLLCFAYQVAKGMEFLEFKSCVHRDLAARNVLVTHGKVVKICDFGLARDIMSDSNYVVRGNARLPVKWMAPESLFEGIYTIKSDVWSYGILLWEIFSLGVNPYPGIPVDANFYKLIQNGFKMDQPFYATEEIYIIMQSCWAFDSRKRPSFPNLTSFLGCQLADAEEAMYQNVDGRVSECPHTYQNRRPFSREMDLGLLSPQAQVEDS
Chain of Serine/threonine-protein kinase haspin (Q8TF76 whole entry): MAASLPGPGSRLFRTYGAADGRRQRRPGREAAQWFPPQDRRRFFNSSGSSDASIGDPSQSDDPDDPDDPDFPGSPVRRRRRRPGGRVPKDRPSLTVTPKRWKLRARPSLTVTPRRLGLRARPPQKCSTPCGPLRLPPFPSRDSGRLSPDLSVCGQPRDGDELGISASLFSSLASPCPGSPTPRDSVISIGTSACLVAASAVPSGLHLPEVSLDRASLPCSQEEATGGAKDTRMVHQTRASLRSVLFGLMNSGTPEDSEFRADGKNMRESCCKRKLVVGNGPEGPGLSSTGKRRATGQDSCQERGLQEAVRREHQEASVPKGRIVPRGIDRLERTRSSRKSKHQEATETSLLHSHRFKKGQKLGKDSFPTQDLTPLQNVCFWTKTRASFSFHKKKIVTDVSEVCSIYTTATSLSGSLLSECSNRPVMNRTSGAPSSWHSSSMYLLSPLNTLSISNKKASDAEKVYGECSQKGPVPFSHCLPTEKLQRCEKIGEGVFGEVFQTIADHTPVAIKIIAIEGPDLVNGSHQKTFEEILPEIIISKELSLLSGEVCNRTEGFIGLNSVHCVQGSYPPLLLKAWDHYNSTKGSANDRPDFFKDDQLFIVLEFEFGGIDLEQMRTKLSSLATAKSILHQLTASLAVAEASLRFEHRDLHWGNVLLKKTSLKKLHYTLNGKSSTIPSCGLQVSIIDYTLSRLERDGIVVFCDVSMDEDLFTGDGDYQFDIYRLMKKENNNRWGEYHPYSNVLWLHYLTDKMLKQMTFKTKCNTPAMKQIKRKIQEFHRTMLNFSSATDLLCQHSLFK
Chain of Protein-tyrosine kinase 6 (Q13882 whole entry): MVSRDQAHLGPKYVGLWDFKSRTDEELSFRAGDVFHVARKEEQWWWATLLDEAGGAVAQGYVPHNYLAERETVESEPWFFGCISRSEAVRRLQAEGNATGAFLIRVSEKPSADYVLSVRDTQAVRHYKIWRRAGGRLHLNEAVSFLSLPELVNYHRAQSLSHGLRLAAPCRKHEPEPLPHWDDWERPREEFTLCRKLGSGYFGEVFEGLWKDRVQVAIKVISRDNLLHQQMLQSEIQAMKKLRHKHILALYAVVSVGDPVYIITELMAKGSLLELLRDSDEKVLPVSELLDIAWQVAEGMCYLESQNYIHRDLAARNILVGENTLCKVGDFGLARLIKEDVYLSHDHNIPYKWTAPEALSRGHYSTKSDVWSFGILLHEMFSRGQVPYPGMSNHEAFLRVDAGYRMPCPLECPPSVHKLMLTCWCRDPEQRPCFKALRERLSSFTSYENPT
Chain of MAP kinase-activated protein kinase 2 (P49137 whole entry): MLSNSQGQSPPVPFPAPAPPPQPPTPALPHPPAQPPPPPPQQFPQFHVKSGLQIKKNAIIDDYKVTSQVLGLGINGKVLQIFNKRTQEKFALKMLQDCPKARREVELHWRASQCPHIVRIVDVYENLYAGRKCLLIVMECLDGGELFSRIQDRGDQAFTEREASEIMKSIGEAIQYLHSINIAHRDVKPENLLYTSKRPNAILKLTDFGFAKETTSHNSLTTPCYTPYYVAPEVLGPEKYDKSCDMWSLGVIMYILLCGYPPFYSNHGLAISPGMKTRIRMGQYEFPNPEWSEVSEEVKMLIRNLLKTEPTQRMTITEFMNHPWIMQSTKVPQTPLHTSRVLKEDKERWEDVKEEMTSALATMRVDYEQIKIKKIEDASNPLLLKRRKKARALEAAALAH
Chain of Serine/threonine-protein kinase NIM1 (Q8IY84 whole entry): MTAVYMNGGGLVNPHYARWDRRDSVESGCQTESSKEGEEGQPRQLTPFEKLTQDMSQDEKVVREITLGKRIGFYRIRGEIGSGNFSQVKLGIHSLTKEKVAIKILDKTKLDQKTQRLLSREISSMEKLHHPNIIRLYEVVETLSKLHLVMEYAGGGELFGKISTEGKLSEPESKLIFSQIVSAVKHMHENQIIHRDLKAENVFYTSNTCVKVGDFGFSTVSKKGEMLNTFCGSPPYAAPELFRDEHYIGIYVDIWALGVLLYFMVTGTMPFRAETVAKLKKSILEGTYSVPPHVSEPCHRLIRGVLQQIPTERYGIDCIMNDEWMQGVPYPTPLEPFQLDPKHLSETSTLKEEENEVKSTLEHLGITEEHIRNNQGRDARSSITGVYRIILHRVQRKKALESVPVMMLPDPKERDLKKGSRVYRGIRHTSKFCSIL

EC50 ([1]; u2os): 1.99 µM
Structure (SMILES): Cn1c2ccccc2c2c3c(c4c5ccccc5n(CCC#N)c4c21)CNC3=O [GO-6976]

IC50 [2]: 1.09 µM
IC50 [3]: > 10 µM
IC50 [4]: 0.88 µM
IC50 [5]: > 10 µM
IC50 [6]: > 10 µM
IC50 [7]: > 10 µM
IC50 [8]: > 10 µM
IC50 [9]: > 10 µM
IC50 (Focal adhesion kinase 1): 3.86 µM
EC50 [1]: 8.98 µM
IC50 [10]: > 10 µM
IC50 [11]: > 10 µM
IC50 [12]: > 10 µM
IC50 [13]: 0.51 µM
IC50 [14]: > 10 µM
IC50 (Casein kinase 2): 0.65 µM
IC50 (Insulin receptor): 4.01 µM
IC50 [15]: 0.3 µM
IC50 [16]: > 10 µM
IC50 [17]: 1.05 µM
IC50 [18]: > 10 µM
IC50 [19]: 0.11 µM
IC50 (Activated CDC42 kinase 1): 2.29 µM
IC50 [20]: > 10 µM
IC50 [21]: > 10 µM
IC50 [22]: 1.95 µM
IC50 [23]: 0.09 µM
IC50 [24]: 2.93 µM
IC50 [25]: 0.41 µM
IC50 [26]: > 10 µM
IC50 [27]: 2.4 µM
IC50 [28]: > 10 µM
IC50 [29]: > 10 µM
IC50 [30]: > 10 µM
IC50 [31]: 0.87 µM
IC50 [32]: 3.28 µM
IC50 [33]: 4.65 µM
IC50 [34]: > 10 µM
IC50 [35]: 1.59 µM
IC50 [36]: 0.07 µM
IC50 [37]: 1.02 µM
IC50 [38]: 0.06 µM
IC50 [39]: > 10 µM
IC50 [40]: > 10 µM
IC50 [41]: > 10 µM
IC50 [42]: 0.19 µM
Structure (SMILES): O=C1c2ccccc2-c2n[nH]c3cccc1c23

EC50 ([1]; u2os): 2.28 µM
Structure (SMILES): COc1cc2c(Nc3ccc(NC(=O)c4ccccc4)cc3)ncnc2cc1OCCCN1CCOCC1
